Legend:
Stromelysin-1 = Stromelysin-1 (Homo sapiens, UniProt P08254); test: Inhibition of recombinant human matrix metalloprotease-3
[1] = target: Matrix metalloproteinase-9 (Homo sapiens, UniProt P14780); test: Inhibition of recombinant human matrix metalloprotease-9
Interstitial collagenase = target: T1, Interstitial collagenase (Homo sapiens, UniProt P03956); test: Inhibition of recombinant human matrix metalloprotease-1
T1 sequence (P03956 whole entry): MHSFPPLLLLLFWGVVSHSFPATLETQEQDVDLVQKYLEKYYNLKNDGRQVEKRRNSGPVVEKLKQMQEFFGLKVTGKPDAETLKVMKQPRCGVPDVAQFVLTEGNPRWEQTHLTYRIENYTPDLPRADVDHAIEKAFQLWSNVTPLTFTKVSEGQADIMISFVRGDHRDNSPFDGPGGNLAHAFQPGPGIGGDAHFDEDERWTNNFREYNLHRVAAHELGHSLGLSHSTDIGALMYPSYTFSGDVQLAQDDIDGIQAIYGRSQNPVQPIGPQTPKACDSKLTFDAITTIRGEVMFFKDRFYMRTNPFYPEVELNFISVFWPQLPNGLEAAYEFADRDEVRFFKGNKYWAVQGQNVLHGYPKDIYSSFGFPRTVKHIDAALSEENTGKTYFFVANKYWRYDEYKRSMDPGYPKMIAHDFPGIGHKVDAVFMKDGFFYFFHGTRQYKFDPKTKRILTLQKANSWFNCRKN

[2] = target: T2, Disintegrin and metalloproteinase domain-containing protein 17 (Homo sapiens, UniProt P78536); test: Inhibition of recombinant human TNF-alpha converting enzyme (TACE)
T2 sequence (P78536 whole entry, the tested form may be a part): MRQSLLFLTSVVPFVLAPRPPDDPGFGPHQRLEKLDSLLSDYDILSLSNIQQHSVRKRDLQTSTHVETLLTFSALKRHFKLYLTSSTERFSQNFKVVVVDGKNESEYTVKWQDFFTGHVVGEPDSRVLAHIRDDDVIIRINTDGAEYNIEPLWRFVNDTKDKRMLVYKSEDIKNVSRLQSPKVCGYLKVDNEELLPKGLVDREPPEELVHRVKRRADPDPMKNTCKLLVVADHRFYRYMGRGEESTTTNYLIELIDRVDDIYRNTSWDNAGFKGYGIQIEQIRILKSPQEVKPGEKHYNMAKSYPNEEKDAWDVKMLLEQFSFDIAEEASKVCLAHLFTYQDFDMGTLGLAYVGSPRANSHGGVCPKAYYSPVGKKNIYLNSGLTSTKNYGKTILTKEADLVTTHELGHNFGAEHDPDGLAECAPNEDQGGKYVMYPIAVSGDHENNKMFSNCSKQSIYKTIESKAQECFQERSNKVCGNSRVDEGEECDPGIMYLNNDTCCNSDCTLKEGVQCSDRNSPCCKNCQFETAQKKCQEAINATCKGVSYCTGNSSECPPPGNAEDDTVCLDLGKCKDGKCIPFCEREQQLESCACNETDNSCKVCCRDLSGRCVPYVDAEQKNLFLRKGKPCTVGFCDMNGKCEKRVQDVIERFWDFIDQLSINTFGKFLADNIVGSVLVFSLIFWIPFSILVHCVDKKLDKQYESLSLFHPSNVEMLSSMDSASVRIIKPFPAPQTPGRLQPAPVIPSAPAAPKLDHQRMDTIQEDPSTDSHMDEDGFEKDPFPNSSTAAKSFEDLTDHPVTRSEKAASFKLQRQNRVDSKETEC

[3] = target: T2, Disintegrin and metalloproteinase domain-containing protein 17; test: Inhibition of recombinant human TNF-alpha converting enzyme

Sequence of Matrix metalloproteinase-9 (P14780 whole entry): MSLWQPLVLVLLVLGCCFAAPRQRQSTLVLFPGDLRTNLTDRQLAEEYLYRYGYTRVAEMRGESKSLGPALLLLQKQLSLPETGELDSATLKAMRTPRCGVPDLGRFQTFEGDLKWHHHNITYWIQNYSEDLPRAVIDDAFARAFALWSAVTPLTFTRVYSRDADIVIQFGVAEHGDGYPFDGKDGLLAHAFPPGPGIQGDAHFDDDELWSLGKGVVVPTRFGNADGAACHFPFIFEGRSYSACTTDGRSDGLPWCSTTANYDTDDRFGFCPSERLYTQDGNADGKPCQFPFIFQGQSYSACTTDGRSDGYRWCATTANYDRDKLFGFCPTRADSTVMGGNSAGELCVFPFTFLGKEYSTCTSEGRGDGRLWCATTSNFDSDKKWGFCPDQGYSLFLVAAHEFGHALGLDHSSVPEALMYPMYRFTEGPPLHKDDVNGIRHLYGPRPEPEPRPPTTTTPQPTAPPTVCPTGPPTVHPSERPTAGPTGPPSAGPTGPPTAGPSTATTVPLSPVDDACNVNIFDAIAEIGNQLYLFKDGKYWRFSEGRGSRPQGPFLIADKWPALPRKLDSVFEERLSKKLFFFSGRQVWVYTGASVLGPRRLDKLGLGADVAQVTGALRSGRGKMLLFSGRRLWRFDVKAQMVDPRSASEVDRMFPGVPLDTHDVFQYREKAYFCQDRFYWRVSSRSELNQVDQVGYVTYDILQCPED
Sequence of Stromelysin-1 (P08254 whole entry): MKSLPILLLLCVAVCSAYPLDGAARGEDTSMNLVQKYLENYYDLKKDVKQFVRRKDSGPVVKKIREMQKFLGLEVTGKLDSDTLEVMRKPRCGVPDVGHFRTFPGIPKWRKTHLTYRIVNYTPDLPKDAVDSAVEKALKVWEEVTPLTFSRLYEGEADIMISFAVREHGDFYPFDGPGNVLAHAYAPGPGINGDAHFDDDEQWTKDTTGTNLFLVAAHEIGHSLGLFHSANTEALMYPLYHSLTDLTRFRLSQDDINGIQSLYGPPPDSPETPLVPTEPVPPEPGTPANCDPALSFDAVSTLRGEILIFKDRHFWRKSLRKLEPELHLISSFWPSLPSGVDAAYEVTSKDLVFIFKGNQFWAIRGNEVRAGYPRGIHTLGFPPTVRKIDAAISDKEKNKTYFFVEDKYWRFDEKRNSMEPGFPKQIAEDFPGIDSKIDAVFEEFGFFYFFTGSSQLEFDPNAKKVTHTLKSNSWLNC

Row | SMILES | Ki (Stromelysin-1) | Ki [1] | Ki (Interstitial collagenase) | Ki [2] | Ki [3]
1 | O=C(NO)[C@H]1[C@@H](O)[C@H](O)[C@@H](O)CN1S(=O)(=O)c1ccc(OC2CCCCC2)cc1 | 1.8 nM | 0.93 nM | 100 nM | 67 nM | 
2 | CCOCCOc1ccc(S(=O)(=O)N2C[C@H](O)[C@@H](O)[C@H](O)[C@@H]2C(=O)NO)cc1 | 42 nM | 64 nM | > 850 nM | 8.7 nM | 
3 | O=C(NO)[C@H]1[C@@H](O)[C@H](O)[C@@H](O)CN1S(=O)(=O)c1ccc(Oc2ccccc2)cc1 | 0.51 nM |  | 8 nM |  | 2.3 nM
4 | COc1ccc(S(=O)(=O)N2C[C@H](O)[C@@H](O)[C@H](O)[C@@H]2C(=O)NO)cc1 |  |  | 25 nM | 12 nM | 
5 | COc1ccc(S(=O)(=O)N2C[C@@H](O)[C@H](O)[C@@H](O)[C@@H]2C(=O)NO)cc1 |  |  | 450 nM | 340 nM | 
6 | COc1ccc(S(=O)(=O)N2C[C@H](O)[C@@H](O)[C@@H](O)[C@@H]2C(=O)NO)cc1 |  |  |  | 71 nM | 
7 | O=C(NO)[C@H]1[C@@H](O)[C@H](O)[C@@H](O)CN1S(=O)(=O)c1ccc(OCc2ccccc2)cc1 | 2.6 nM | 6.1 nM | 850 nM | 1.6 nM | 
8 | COc1ccc(S(=O)(=O)N2C[C@H](O)[C@H](O)[C@@H](O)[C@@H]2C(=O)NO)cc1 |  |  | > 850 nM | 510 nM | 

Reference: ChEMBL document CHEMBL1144950, “Structure--activity relationships of azasugar-based MMP/ADAM inhibitors” (Bioorg Med Chem Lett, 2003)
